# Where no end group is shown, it is not given here. S0456 = NIR dye, conjugated to the peptide N-terminus
# Legend:
# EDB fragment = EDB fragment (Homo sapiens, UniProt P02751); conditions: background, earlier work (U.S. Pat. No. 10,653,801); cited from earlier work
# HSC3 HNC xenograft [1] = assay: Topical staining of exposed HSC3 HNC xenograft tumor, fluorescence imaging; assay type: in vivo, mouse; conditions: 1 drop of 40 μM applied topically, rinsed with PBS after 2 minutes
# Excerpt: (§1) FIGS. 3A and 3B provide images showing (A) fluorescence images of the organ tissues of the mice received IV injection of ZD2-S0456, showing ZD2-S0456 binding to HSC3 HNC xenograft. 1: kidney; 2: heart; 3: spleen; 4: brain; 5: muscle; 6: tumor; 7: liver; 8: lung. […] (B) Fluorescence image of mice bearing HSC3 HNC xenografts topically stained with PBS or ZD2-Cy5.5.
# (§2) The specific staining of ZD2-S0456 to human HNC tumors comparing to normal tissues was investigated after intravenous injection of ZD2-S0456 in mouse xenograft models (FIG. 3). Mice were injected with 10 nmol/mouse ZD2-S0456 or PBS and euthanized 60 minutes post injection to collect tumor tissue and major organs. […] Furthermore, ZD2-S0456 can identify the tumor margin by topical staining of mouse xenograft tumors. The skin atop the HSC3 HNC xenograft tumor was removed to expose the tumor while the mouse was under anesthesia. Then 1 drop of 40 μM ZD2-Cy5.5 was topically applied to the tumor and surrounding tissues, which was rinsed with PBS after 2 minutes.
# HSC3 HNC xenograft [2] = assay: Fluorescence imaging of tumor and major organs after intravenous injection in HSC3 HNC xenograft mice; conditions: 10 nmol/mouse IV, 60 minutes post injection, ex vivo tissue imaging; no signal after PBS
# Excerpt: as §1, §2
# [3] = test system: human breast cancer MDA-MB-231 TNBC xenograft; assay: Fluorescence imaging after intravenous injection in MDA-MB-231 TNBC xenograft mice; assay type: in vivo; conditions: 10 nmol/mouse IV, imaged 60 minutes post injection
# Procedure: FIG. 4 provide a fluorescence image of mouse bearing human breast cancer MDA-MB-231 TNBC xenograft after IV injection of ZD2-S0456, showing ZD2-S0456 staining to the tumor.
# The specific staining of ZD2-S0456 to human TNBC tumors comparing to normal tissues was investigated after intravenous injection of ZD2-S0456 in mouse xenograft models (FIG. 4). Mouse were injected with 10 nmol/mouse ZD2-S0456 and imaged 60 minutes post injection.
# EDB fragment, sequence (P02751 1271-1359 limits assumed): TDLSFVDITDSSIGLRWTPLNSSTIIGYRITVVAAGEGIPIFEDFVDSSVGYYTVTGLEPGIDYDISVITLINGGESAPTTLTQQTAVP
substance,measurement,setting,value
TVRTSAD [ZD2],Binding affinity to the EDB fragment,EDB fragment,moderate binding affinity
ZD2-Cy5.5: ZD2 targeted fluorescence dye (Cy5.5) (TVRTSAD; also: Cy5.5 dye conjugated),Fluorescence signal on tumor vs surrounding tissues after topical staining,HSC3 HNC xenograft [1],strong fluorescence signal on the tumor but not the surrounding tissues
ZD2-S0456: ZD2 peptide with NIR dye S0456 conjugated to its N-terminus (S0456-TVRTSAD-OH),Fluorescence signal in the tumor,HSC3 HNC xenograft [2],strong signal in the tumor
same,Fluorescence signal in the tumor compared to surrounding normal tissues,[3],stronger signal in the tumor
